Source: patent US20200190090A1, “OREXIN RECEPTOR ANTAGONISTS” (BENEVOLENTAI BIO LIMITED, priority 2017, published 2020)
Where two headings read alike, the source gives them in different places.

Legend:
[1] = molecular target: T1, human recombinant OX1 (hOX1R) receptor (Homo sapiens, UniProt O43613); assay: Scintillation Proximity binding Assay (SPA), [3H]-SB674042 displacement, membranes of CHO cell line transformed with hOX1R; settings: for Ki: 60 min, Cheng-Prusoff from IC50, geometric mean, read-out: hOX1R Binding pKi (60 min) (converted); for IC50: SPA, [3H]-SB674042, room temperature (19° C.), GeoMean, read-out: IC50 OX1R
T1 construct: expressed in transfected cells; host or cells: CHO cell line (membranes)
T1 sequence (O43613 1-425): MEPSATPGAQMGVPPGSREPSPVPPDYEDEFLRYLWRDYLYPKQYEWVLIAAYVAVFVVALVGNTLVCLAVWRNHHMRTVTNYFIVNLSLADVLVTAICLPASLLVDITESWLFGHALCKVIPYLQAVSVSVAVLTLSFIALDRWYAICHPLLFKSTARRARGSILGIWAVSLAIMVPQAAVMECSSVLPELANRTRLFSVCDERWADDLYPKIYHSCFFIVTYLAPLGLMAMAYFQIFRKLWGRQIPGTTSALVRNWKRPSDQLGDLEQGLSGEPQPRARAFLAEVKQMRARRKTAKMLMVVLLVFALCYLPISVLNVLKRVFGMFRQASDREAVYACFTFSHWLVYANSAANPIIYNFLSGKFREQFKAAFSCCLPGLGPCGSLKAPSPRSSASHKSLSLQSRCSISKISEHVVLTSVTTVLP
Experimental: (§1) The in vitro binding affinity of 6-[(3aS,4S,6aR)-5-(2-fluoro-4-methoxybenzoyl)-4-methyl-octahydropyrrolo[3,4-c]pyrrol-2-yl]-2,4-dimethylpyridine-3-carbonitrile 3278/6 (the compound of Example 1) for human recombinant OX1 (hOX1R) and OX2 (hOX2R) receptors was determined using a Scintillation Proximity binding Assay (SPA).
(§2) A 96-well plate SPA was developed using antagonist radioligands (OX-radioligands); [3H]-SB674042 (Langmead et al., 2004; Malherbe et al., 2009a) for hOX1R and [3H]-EMPA (Malherbe et al., 2009b) for hOX2R. Cell membranes were prepared from recombinant cell lines; a CHO cell line transformed with hOX1R (GeneBank accession # NM_001525) and a HEK cell line transformed with hOX2R (GeneBank accession # NM_001526.2).
(§3) On the day of the assay, membranes containing hOX1R or hOX2R were captured onto SPA-beads. All test compounds were dissolved in 100% DMSO as 10 mM stock solutions, and prepared as 8-point semi-log dilution in 100% DMSO immediately prior to assay (final assay range 5 uM to 0.064 nM). The compound of Example 1 was co-administered with the appropriate OX-radioligand, and the SPA-membrane preparation added to initiate the assay. During the assay, any compound of Example 1 that bound to the receptors competed with radioligand and reduced the assay signal. Assay plates were read using PerkinElmer Microbeta2 allowing the binding profile of the compound of Example 1 to be assessed at room temperature (19° C.) over several time points (15, 60, 90, 120, 150 minutes, and 18 hours) in hOX1R and hOX2R assay formats.
(§4) End-point data values were determined as Specific Binding (SB) and expressed as a percentage of control (% SB), with 100% being the SB of OX-radioligand in the absence of competing unlabelled ligand, and 0% being the SB of the relevant OX-radioligand in the presence of an excess of the competing cold/unlabelled ligand (Suvorexant; a dual OXR-antagonist [DORA]).
(§5) TB=Total Bound (in presence of 0.5% DMSO); NSB=Non Specific Bound (in the presence of Suvorexant at 1 μM)=0%;
(§6) SB=Specific Bound (TB-NSB)=100%
(§7) Assay data were used to determine half maximal inhibitory concentration (IC50) using a four-parameter logistic model in XLfit and/or GraphPad Prism v5. IC50 were derived from plots of % SB against log 10 of the concentration of the compound of Example 1. The pKi were calculated from the IC50 using the Cheng-Prusoff correction: […]=IC50/(1+([L]/KD)) where [L] is the radioligand concentration in the displacement assay, and KD is the dissociation constant of the radioligand.
(§8) The Selectivity value is derived from the Ki [Ki (OX2R)/Ki(OX1R)].
(§9) was prepared and tested by analogous methods to those described above in Example 1 and Example 2 in respect of the compound of Example 1.

[2] = molecular target: T2, human recombinant OX2 (hOX2R) receptor (Homo sapiens, UniProt O43614); assay: Scintillation Proximity binding Assay (SPA), [3H]-EMPA displacement, membranes of HEK cell line transformed with hOX2R; settings: for Ki: 60 min, Cheng-Prusoff from IC50, geometric mean, read-out: hOX2R Binding pKi (60 min) (converted); for Selectivity OX2R/OX1R: selectivity calculated using Ki (Ox2R)/Ki(Ox1R)
T2 construct: expressed in transfected cells; host or cells: HEK cell line (membranes)
T2 sequence (O43614 1-444): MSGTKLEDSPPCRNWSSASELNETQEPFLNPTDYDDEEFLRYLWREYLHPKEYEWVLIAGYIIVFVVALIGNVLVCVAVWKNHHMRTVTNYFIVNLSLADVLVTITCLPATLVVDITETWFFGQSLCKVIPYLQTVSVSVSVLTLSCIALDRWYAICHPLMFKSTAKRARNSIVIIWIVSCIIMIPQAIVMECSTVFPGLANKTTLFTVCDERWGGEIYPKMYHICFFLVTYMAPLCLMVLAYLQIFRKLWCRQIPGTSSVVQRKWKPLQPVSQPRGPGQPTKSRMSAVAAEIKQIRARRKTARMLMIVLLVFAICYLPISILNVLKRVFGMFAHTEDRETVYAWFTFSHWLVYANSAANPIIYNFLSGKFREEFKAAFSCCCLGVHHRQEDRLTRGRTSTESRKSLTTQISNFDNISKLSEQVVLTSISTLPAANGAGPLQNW
Experimental: as §1, §2, §3, §4, §5, §6, §7, §8, §9

[3] = SPA, [3H]-EMPA, room temperature (19° C.), GeoMean, read-out: IC50 OX2R
[4] = data at 60 min, read-out: OX2R pIC50 (converted)

SMILES | Ki [1] | IC50 [1] | Ki [2] | OX2R Selectivity (IC50 OX1R/OX2R) ([2]; IC50 ratio) | IC50 [2, 3] | IC50 [2, 4] | Selectivity OX2R/OX1R [2] | affinity for hOX1R (in words) [1] | affinity for hOX2R (in words) [2] | affinity for hOX2R compared with comparative Example A (in words) ([2]; comparison) | hOX2R Selectivity (IC50 hOX2R/hOX1R) ([2]; head says IC50 ratio) | selectivity for hOX2R ([2]; over hOX1R) | hOX2R Binding Equilibration Time ([2]; room temperature (19° C.))
COc1ccc(C(=O)N2C[C@@H]3CN(c4cc(C)c(C#N)c(C)n4)C[C@@H]3C2)c(F)c1 [Example A, 6-[(3aS,4S,6aR)-5-(2-fluoro-4-methoxybenzoyl)-octahydropyrrolo[3,4-c]pyrrol-2-yl]-2,4-dimethylpyridine-3-carbonitrile, reference compound] | 3630 nM | 7840 nM | 85.1 nM | 52 | 150 nM | 151 nM | 43 |  |  |  |  |  | 
COc1ccc(C(=O)N2C[C@H]3CN(c4cc(C)c(C#N)c(C)n4)C[C@H]3[C@@H]2C)c(F)c1 [Example 1, 6-[(3aS,4S,6aR)-5-(2-fluoro-4-methoxybenzoyl)-4-methyl-octahydropyrrolo[3,4-c]pyrrol-2-yl]-2,4-dimethylpyridine-3-carbonitrile] | 47.9 nM | 97.7 nM | 0.724 nM |  | 1.23 nM | 1.23 nM | 69 | high affinity | high affinity | higher affinity | 69 | 69 fold | 38 min
